Test results: ChEMBL document CHEMBL1144156 (Bioorg Med Chem Lett, 2008)

Tests used:
Progesterone receptor [1] = biological target: T1, Progesterone receptor (Homo sapiens, UniProt P06401); assay: Activity at progesterone receptor assessed as alkaline phosphatase activity in human T47D cells; format: cell-based
T1 sequence (P06401 whole entry): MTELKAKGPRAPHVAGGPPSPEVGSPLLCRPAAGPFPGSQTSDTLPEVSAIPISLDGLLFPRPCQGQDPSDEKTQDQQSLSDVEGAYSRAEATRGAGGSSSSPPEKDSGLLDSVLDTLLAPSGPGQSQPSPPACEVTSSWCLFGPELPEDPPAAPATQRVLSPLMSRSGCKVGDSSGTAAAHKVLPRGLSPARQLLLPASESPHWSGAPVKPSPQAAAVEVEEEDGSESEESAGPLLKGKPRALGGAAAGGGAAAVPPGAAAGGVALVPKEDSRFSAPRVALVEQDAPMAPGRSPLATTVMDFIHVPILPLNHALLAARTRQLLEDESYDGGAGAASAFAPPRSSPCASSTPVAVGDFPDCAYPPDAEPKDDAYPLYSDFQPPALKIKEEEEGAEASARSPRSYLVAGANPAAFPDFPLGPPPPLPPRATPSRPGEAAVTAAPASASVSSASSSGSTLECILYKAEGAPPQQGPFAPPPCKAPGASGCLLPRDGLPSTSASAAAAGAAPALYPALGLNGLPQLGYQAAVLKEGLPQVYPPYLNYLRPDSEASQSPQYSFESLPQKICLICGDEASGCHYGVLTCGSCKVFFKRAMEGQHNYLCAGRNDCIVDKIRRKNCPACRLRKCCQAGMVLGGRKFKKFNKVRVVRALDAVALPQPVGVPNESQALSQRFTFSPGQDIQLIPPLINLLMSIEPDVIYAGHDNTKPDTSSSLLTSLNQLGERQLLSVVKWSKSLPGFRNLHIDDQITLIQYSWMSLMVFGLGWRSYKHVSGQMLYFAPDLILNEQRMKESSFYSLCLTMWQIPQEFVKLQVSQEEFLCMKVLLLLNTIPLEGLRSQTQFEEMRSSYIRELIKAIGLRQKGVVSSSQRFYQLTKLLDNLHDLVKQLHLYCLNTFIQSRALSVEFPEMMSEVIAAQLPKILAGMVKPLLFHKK

Progesterone receptor [2] = biological target: T1, Progesterone receptor; assay: Antagonist activity at progesterone receptor assessed as progesterone-induced alkaline phosphatase activity in human T47D cells; format: functional, cell-based
Progesterone receptor [3] = biological target: T1, Progesterone receptor; assay: Displacement of [3H]progesterone from progesterone receptor in human T47D cells; format: cell-based
Estrogen receptor = biological target: T2, Estrogen receptor (Homo sapiens, UniProt P03372); assay: Antagonist activity at estrogen receptor by Gal4-DNA binding domain-hormone receptor LBD one-hybrid assay
T2 sequence (P03372 whole entry): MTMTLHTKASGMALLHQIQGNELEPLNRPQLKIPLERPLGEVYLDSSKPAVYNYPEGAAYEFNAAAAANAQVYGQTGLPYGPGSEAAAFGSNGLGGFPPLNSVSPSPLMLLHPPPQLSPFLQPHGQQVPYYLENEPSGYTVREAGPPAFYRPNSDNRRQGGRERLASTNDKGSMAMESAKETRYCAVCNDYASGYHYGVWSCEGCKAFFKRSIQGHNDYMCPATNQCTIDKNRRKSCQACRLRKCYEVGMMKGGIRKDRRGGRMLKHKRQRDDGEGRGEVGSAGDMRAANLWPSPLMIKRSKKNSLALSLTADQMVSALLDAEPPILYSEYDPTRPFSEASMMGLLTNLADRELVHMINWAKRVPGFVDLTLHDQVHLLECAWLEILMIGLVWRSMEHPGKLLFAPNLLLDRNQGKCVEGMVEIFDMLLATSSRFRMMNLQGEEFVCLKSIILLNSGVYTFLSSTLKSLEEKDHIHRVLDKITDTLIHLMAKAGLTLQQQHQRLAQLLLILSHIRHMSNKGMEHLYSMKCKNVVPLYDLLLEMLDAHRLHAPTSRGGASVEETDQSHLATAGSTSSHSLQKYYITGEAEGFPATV

Androgen receptor = biological target: T3, Androgen receptor (Homo sapiens, UniProt P10275); assay: Antagonist activity at androgen receptor by Gal4-DNA binding domain-hormone receptor LBD one-hybrid assay
T3 sequence (P10275 whole entry): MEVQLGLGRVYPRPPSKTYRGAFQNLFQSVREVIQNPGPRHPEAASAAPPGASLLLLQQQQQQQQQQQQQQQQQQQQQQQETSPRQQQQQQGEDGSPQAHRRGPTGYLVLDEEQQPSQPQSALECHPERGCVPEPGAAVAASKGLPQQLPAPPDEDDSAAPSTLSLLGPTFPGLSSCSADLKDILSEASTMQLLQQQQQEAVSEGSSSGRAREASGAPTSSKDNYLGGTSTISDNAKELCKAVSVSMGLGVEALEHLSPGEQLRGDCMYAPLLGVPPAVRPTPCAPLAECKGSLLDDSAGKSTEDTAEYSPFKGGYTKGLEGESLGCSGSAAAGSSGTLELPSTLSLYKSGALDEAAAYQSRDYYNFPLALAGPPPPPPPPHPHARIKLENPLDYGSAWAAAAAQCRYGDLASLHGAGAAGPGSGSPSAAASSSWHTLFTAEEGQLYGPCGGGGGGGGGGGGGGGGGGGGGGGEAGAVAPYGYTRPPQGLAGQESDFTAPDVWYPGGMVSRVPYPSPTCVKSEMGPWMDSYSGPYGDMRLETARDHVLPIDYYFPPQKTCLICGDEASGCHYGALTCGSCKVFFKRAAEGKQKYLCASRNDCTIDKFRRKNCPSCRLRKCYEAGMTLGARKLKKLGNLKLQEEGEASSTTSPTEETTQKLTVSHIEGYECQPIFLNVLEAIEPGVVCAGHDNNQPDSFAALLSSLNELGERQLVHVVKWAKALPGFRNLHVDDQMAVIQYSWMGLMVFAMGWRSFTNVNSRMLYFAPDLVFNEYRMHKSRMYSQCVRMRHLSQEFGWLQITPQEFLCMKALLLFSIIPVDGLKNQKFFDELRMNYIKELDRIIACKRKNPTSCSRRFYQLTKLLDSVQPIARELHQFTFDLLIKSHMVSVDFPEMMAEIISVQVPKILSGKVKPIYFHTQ

Glucocorticoid receptor = biological target: T4, Glucocorticoid receptor (Homo sapiens, UniProt P04150); assay: Antagonist activity at glucocorticoid receptor by Gal4-DNA binding domain-hormone receptor LBD one-hybrid assay
T4 sequence (P04150 whole entry): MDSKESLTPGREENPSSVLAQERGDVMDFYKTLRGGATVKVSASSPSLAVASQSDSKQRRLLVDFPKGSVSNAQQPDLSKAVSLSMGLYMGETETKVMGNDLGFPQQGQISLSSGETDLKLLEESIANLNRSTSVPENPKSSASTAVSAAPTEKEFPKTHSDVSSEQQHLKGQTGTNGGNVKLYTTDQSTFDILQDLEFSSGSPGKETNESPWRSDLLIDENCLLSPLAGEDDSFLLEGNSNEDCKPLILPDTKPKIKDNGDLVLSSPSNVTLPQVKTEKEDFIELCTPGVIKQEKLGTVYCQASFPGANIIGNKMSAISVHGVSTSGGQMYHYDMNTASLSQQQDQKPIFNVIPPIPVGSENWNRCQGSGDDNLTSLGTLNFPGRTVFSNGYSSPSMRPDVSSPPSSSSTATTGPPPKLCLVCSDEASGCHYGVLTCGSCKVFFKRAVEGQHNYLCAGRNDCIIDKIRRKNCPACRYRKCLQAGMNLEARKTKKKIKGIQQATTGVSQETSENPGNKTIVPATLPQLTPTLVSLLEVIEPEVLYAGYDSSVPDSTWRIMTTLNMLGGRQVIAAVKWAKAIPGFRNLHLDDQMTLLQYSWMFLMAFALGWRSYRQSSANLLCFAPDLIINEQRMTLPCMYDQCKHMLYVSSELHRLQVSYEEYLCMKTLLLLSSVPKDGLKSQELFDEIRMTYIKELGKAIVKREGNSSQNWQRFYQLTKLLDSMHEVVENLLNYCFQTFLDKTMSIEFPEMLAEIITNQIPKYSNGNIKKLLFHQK

[4] = biological target: T5, Mineralocorticoid receptor (Homo sapiens, UniProt P08235); assay: Antagonist activity at mineralocorticoid receptor by Gal4-DNA binding domain-hormone receptor LBD one-hybrid assay
T5 sequence (P08235 whole entry): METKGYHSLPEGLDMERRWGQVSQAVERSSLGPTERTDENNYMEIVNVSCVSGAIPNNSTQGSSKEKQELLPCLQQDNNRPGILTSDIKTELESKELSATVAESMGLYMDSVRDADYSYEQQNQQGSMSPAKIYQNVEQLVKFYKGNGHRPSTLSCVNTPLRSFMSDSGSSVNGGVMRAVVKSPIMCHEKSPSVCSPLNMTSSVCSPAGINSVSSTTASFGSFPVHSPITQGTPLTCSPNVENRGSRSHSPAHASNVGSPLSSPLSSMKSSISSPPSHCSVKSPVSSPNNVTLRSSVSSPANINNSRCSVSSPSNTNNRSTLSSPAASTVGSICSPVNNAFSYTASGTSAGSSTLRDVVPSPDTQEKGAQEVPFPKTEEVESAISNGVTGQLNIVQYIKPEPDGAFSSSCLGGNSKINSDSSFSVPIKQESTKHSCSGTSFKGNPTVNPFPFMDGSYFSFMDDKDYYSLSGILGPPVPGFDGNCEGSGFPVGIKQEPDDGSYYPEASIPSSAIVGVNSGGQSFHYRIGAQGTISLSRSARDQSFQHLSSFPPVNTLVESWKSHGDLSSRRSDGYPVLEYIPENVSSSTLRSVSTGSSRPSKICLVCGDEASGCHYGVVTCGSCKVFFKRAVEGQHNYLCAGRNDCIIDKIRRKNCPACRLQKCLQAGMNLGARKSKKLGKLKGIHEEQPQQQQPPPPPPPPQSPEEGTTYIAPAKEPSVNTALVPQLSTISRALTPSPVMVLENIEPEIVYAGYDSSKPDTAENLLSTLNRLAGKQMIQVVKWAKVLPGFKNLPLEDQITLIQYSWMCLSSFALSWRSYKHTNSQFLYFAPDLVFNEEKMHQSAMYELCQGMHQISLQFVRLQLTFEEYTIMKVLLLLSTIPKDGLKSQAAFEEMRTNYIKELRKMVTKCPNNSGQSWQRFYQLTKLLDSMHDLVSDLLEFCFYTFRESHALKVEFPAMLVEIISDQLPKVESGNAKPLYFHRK

EC50 (Progesterone receptor [1]) [µM]	IC50 (Progesterone receptor [2]) [µM]	IC50 (Progesterone receptor [3]) [µM]	SMILES	other results
0.0305			N#Cc1ccc(-c2ccc3c(c2)C2(CCCCC2)OCC(=O)N3)[nH]1	
0.0375			CN1C(=O)COC(C)(c2cccs2)c2cc(-c3ccc(C#N)n3C)ccc21 (stereo not given)	
		0.075	CCC1(c2cccs2)OCC(=O)Nc2ccc(-c3ccc(C#N)n3C)cc21 (stereo not given)	
0.246			CC1OCC(=O)Nc2ccc(-c3ccc(C#N)[nH]3)cc21 (stereo not given)	
0.0011			CC1(c2ccsc2)OCC(=O)Nc2ccc(-c3ccc(C#N)[nH]3)cc21 (stereo not given)	
0.0033		0.0107	CC1(C)OCC(=O)Nc2ccc(-c3ccc(C#N)[nH]3)cc21	
0.0033			Cn1c(C#N)ccc1-c1ccc2c(c1)C(C)(C)OCC(=O)N2	
	0.0566		CCCC1(c2cccs2)OCC(=O)Nc2ccc(-c3ccc(C#N)n3C)cc21 (stereo not given)	
	0.12		CCC1(c2cccs2)OCC(=O)N(C)c2ccc(-c3ccc(C#N)n3C)cc21 (stereo not given)	
	0.0365		CC(C)C1(c2cccs2)OCC(=O)Nc2ccc(-c3ccc(C#N)n3C)cc21 (stereo not given)	

Second part, the compound before the results:

SMILES	EC50 (Progesterone receptor [1]) [µM]	IC50 (Progesterone receptor [2]) [µM]	IC50 (Progesterone receptor [3]) [µM]	other results
Cn1c(C#N)ccc1-c1ccc2c(c1)C(c1cccc(Cl)c1)(c1cccc(Cl)c1)OCC(=O)N2		0.175		
Cn1c(C#N)ccc1-c1ccc2c(c1)C(C)(c1ccsc1)OCC(=O)N2 (stereo not given)	0.0008		0.0034	IC50 (Estrogen receptor): > 10 µM; IC50 (Androgen receptor): 0.325 µM; IC50 (Glucocorticoid receptor): 0.127 µM; IC50 [4]: 0.44 µM
Cn1c(C#N)ccc1-c1ccc2c(c1)C(C)(c1cccs1)OCC(=O)N2 (stereo not given)	0.0008		0.0024	
CC1(c2cccs2)OCC(=O)Nc2ccc(-c3ccc(C#N)[nH]3)cc21 (stereo not given)	0.0007		0.0038	
Cn1c(C#N)ccc1-c1ccc2c(c1)C(c1ccccc1)(c1ccccc1)OCC(=O)N2		0.0143	0.036	
Cn1c(C#N)ccc1-c1ccc2c(c1)C(c1ccco1)(c1ccco1)OCC(=O)N2		0.0066	0.0284	IC50 (Estrogen receptor): > 10 µM; IC50 (Androgen receptor): 0.74 µM; IC50 (Glucocorticoid receptor): > 3 µM; IC50 [4]: 2.8 µM
Cn1c(C#N)ccc1-c1ccc2c(c1)C(C)(c1ccco1)OCC(=O)N2 (stereo not given)	0.0004			IC50 (Estrogen receptor): > 10 µM; IC50 (Androgen receptor): 0.215 µM; IC50 (Glucocorticoid receptor): 0.12 µM; IC50 [4]: 0.155 µM
CC1OCC(=O)Nc2ccc(-c3ccc(C#N)n3C)cc21 (stereo not given)	0.138			
Cn1c(C#N)ccc1-c1ccc2c(c1)C(c1ccc(Cl)s1)(c1ccc(Cl)s1)OCC(=O)N2		0.197		
C[C@@]1(c2ccsc2)OCC(=O)Nc2ccc(-c3ccc(C#N)[nH]3)cc21	0.0005			
Cn1c(C#N)ccc1-c1ccc2c(c1)C(c1cccs1)(c1cccs1)OCC(=O)N2			0.06	IC50 (Estrogen receptor): > 10 µM; IC50 (Androgen receptor): 0.775 µM; IC50 (Glucocorticoid receptor): > 3 µM; IC50 [4]: 2.3 µM
C[C@]1(c2ccsc2)OCC(=O)Nc2ccc(-c3ccc(C#N)[nH]3)cc21	0.11			
CN1C(=O)COC(c2ccccc2)(c2ccccc2)c2cc(-c3ccc(C#N)n3C)ccc21		0.5		
